Measured values reported in patent publication US11464825B2, “Adiponectin peptidomimetics for treating ocular disorders” (Allysta Pharmaceuticals, Inc., priority 2015, dated 2022).
Primed or numbered codes have the meaning given here. Where no end group is shown, it is not given here. [ ]: non-standard residue; d: D form. Dab′ = 2,3-diamino butyric acid; Nva = CCC[C@H](N)C(=O)O

Experiments:
[1] = tested on: experimental dry eye (EDE) mice; assay: Tear volume by phenol red thread tear test in experimental dry eye (EDE) mice; type: in vivo, C57BL/6 mice; settings: 0.01% in BSS, 3 times a day; for tear production, as measured by tear volume, compared to untreated or BSS treated EDE mice: topical bilateral 2 μl/eye, day 5 and day 10 after treatment initiation, p-value <0.05 vs. EDE; for difference in tear volume among those treated with ADP355, ADP399 and globular adiponectin: topical, EDE mice
Method: (§1) Experimental dry eye (EDE) was induced in 8-week old female C57BL/6 mice by subcutaneous injection of 0.5 mg/0.2 mL scopolamine hydrobromide (Sigma-Aldrich, St. Louis, Mo.) three times a day (9 AM, 1:30 PM and 6 PM). A dose of 0.3 mL scopolamine hydrobromide was administered at each injection. The mice were also exposed to an air draft and 30% ambient humidity. 6 experimental groups used in this study included: (1) untreated control mice (UT; no dry eye treatment and no topical treatment); (2) untreated EDE control mice (EDE; received no topical administration); (3) EDE control mice received a balanced salt solution (BSS); (4) EDE mice received 0.01% single chain adiponectin peptidomimetic (ADP355) in BSS; (5) EDE mice receiving 0.01% peptide dimer adiponectin peptidomimetic (ADP399) in BSS; and (6) EDE mice receiving 0.01% recombinant globular adiponectin (gAdipo) in BSS. Each group included 5 mice. EDE mice treated with BSS received topical bilateral administration of […], 3 times a day. EDE mice treated with ADP355 received topical bilateral administration of 2 μl/eye, 3 times a day. EDE mice treated with ADP-399 received topical bilateral administration of 2 μl/eye, 3 times a day. The gAdipo treated mice served as a positive treatment control. Mice were evaluated at baseline, day 5 and day 10 after the treatment initiation. In some experiments, ADP355, ADP-399 and gAdipo were resuspended in 0.01% BSA.
Tear volume was measured using a phenol red thread tear test. Briefly, a cotton thread treated with phenol red at its tip (Zone-Quick; Oasis, Glendora, Calif.) was held with jeweler's forceps and placed in the tear meniscus of the lateral canthus for 20 secs to contact tear fluid. Using a microscope, the length of the red portion (wet portion) of the thread was measured in millimeters. A standard curve was derived to convert the distance measurement into tear volume.

[2] = tested on: experimental dry eye (EDE) mice; assay: Corneal fluorescein staining score in experimental dry eye (EDE) mice; type: in vivo, C57BL/6 mice; settings: 0.01% in BSS, 3 times a day; for corneal staining (corneal irregularity) compared to untreated EDE mice: topical bilateral 2 μl/eye, score 0-4 averaged over five regions, day 5 and day 10, p-value <0.05 vs. EDE; for corneal surfaces compared to untreated normal mice (UT) and positive control globular adiponectin-treated mice (gAdipo): topical, EDE mice
Method: as §1
The severity of corneal epithelial damage was evaluated by corneal fluorescein staining. Briefly, 1% fluorescein dye (1 μl) was instilled into the eye and then the eye was washed with saline. 10 minutes after application of the dye, the eye was photographed with a slip lamp microscope using a cobalt blue light. The stained area was graded using a scoring system by two blinded observers. […] The average score from the five regions was recorded. […] In addition, the adiponectin peptidomimetic-treated mice (ADP355 and ADP-399) had corneal surfaces that were similar to those of untreated normal mice (UT) and positive control globular adiponectin-treated mice (gAdipo). The corneal surface scores in all groups at day 10 were similar to those at day 5 after treatment initiation.

Substance | tear production, as measured by tear volume, compared to untreated or BSS treated EDE mice [1] | difference in tear volume among those treated with ADP355, ADP399 and globular adiponectin [1] | corneal staining (corneal irregularity) compared to untreated EDE mice [2] | corneal surfaces compared to untreated normal mice (UT) and positive control globular adiponectin-treated mice (gAdipo) [2]
(DAsn-Ile-Pro-Nva-Leu-Tyr-DSer-Phe-Ala-DSer-His-Pro)2-Dab-NH2 ([dN]IP[Nva]LY[dS]FA[dS]HP[Dab′]-NH2; also: branched dimer: two chains joined via Dab) [ADP399, linear branched dimer of ADP355] | higher | no significant difference | less corneal staining | similar
DAsn-Ile-Pro-Nva-Leu-Tyr-DSer-Phe-Ala-DSer-NH2 ([dN]IP[Nva]LY[dS]FA[dS]-NH2; N-terminus assumed; SMILES CCC[C@H](NC(=O)[C@@H]1CCCN1C(=O)[C@@H](NC(=O)[C@H](N)CC(N)=O)[C@@H](C)CC)C(=O)N[C@@H](CC(C)C)C(=O)N[C@@H](Cc1ccc(O)cc1)C(=O)N[C@H](CO)C(=O)N[C@@H](Cc1ccccc1)C(=O)N[C@@H](C)C(=O)N[C@H](CO)C(N)=O) [ADP355, single chain adiponectin peptidomimetic] | higher | no significant difference | less corneal staining | similar
